# From patent US10968232B2 (Merck Sharp & Dohme Corp., priority 2016, dated 2021)
# Target: T1, human GPR40 (Homo sapiens, UniProt O14842)
# T1 construct: expressed in transfected cells
# Assay: Inositol Phosphate Turnover (IP1) Assay
# Assay type: cell-based
# Conditions: HEK cells stably expressing human GPR40; CisBio IP-One kit; 60 minutes at 37 degrees; read-out: Human IP1 EC50
# Description: Human GPR40 stable cell-lines were generated in HEK cells. The expression plasmids were transfected using lipofectamine (Life Technologies) following manufacturer's instructions. Stable cell-lines were generated following drug selection and single cell cloning. The assay was performed in 384-well format. HEK cells stably expressing human GPR40 were plated at 7500 cells per well in growth medium (DMEM/10% fetal calf serum). Cell plates were then incubated 16 hours at 37 degrees in a 5% CO2 incubator. Measurement of Inositol Phosphate Turnover (IP1) was performed using the CisBio IP-One kit (Part number 62IPAPEB). After the 16 hour incubation, the growth media was removed by centrifugation using the BlueWasher (AusWasher GUI Ver. v1.0.1.8) Protocol #21-“Light Dry” and 10 ul of stimulation buffer (prepared as described in the kit) was added to each well. In a separate plate, compounds were diluted in DMSO (200-fold over the final concentration in the assay well) and 50 nl was acoustically transferred to the appropriate well in the assay cell plate. The plates were then incubated for 60 minutes at 37 degrees in a 5% CO2 incubator. 10 ul of detection buffer (also prepared as described in the IP-One kit) was added to each well and the plates were incubated at room temperature for 60 minutes in the dark. The plates were then read in a Perkin Elmer EnVision or equivalent reader able to measure FRET. […] Data was normalized to % activity using a reference compound and EC50s determined using a standard 4-parameter fit.
# T1 sequence (O14842 whole entry): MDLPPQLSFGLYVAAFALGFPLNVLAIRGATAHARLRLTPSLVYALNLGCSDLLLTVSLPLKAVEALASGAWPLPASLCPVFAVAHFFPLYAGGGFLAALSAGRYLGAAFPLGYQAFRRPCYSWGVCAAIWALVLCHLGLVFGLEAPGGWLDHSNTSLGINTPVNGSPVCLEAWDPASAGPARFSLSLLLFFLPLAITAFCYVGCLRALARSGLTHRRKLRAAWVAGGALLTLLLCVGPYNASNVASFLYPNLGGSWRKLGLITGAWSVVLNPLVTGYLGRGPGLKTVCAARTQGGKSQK
row,SMILES,EC50 [nM]
1,"CC(c1cc(Cl)cc(Cl)c1OC(F)F)N1CCC2(CCc3ccc([C@H](C4CC4)[C@H](C)C(=O)O)cc3O2)CC1 (single isomer, unassigned) [Example 80, (2S,3R)-3-cycloprop-3-(1′-((S or R)-1-(3,5-dichloro-2-(difluoro-methoxy)phenyl)-ethyl)spiro[chroman-2,4′-piperidin]-7-yl)-2-methylpropanoic acid]",3.22
2,"C[C@H](C(=O)O)[C@H](c1ccc2c(c1)OC1(CC2)CCN(Cc2cn(C)nc2C(F)(F)F)CC1)C1CC1 [Example 72, (2S,3R)-3-cyclopropyl-2-methyl-3-(1′-((1-methyl-3-(trifluoromethyl)-1H-pyrazol-4-yl)methyl)spiro[chroman-2,4′-piperidin]-7-yl)propanoic Acid]",995
3,"CC(c1ncccc1C(F)(F)F)N1CCC2(CCc3ccc([C@H](C4CC4)[C@H](C)C(=O)O)cc3O2)CC1 (single isomer, unassigned) [Example 44, (2S,3R)-3-cyclo-propyl-2-methyl-3-(1′-((R or S)-1-(3-(trifluoromethyl)pyridin-2-yl)ethyl)spiro-[chroman-2,4′-piperidin]-7-yl)propanoic acid]",311
4,"Cc1nc(C(F)(F)F)c(CN2CCC3(CCc4ccc([C@H](C5CC5)[C@H](C)C(=O)O)cc4O3)CC2)s1 [Example 53, (2S,3R)-3-cyclopropyl-2-methyl-3-(1′-((2-methyl-4-(trifluoromethyl)thiazol-5-yl)methyl)spiro[chroman-2,4′-piperidin]-7-yl)propanoic Acid]",107
5,"CC(c1nc(C(F)(F)F)ccc1Cl)N1CCC2(CCc3ccc([C@H](C4CC4)[C@H](C)C(=O)O)cc3O2)CC1 (single isomer, unassigned) [Example 31]",49.9
6,"CC(c1cc(C(F)(F)F)ccc1C1CC1)N1CCC2(CCc3ccc([C@H](C4CC4)[C@H](C)C(=O)O)cc3O2)CC1 (single isomer, unassigned) [Example 13, sodium (2S,3R)-3-cyclo-propyl-3-(1′-((R or S)-1-(2-cyclopropyl-5-(trifluoromethyl)phenyl)ethyl)spiro[chroman-2,4′-piperidin]-7-yl)-2-methylpropanoale]",3.6
7,"CC(c1cc(Cl)ccc1OC(F)F)N1CCC2(CCc3ccc([C@H](C4CC4)[C@H](C)C(=O)O)c(F)c3O2)CC1 (single isomer, unassigned) [Example 33, (2S,3R)-3-(1′-((R or S)-1-(5-chloro-2-(difluoromethoxy)phenyl)ethyl)-8-fluorospiro-[chroman-2,4′-piperidin]-7-yl)-3-cyclopropyl-2-methylpropanoic Acid]",50
8,"C[C@H](C(=O)O)[C@H](c1ccc2c(c1F)OC1(CC2)CCN([C@H](C)c2cc(C(F)(F)F)ccc2Cl)CC1)C1CC1 (mixture of isomers) [Example 12, (2S,3R)-3-(1′-((RS)-1-(2-chloro-5-(trifluoro-methyl)phenyl)ethyl)-8-fluorospiro[chroman-2,4′-piperidin]-7-yl)-3-cyclopropyl-2-methylpropanoic acid]",995
9,"C[C@H](C(=O)O)[C@H](c1ccc2c(c1)OC1(CC2)[C@@H]2CC[C@H]1CN([C@@H](C)c1cc(F)ccc1C(F)(F)F)C2)C1CC1 (single isomer, unassigned) [Example 82]",249
10,"CC(c1cc(F)cc(F)c1Cl)N1CCC2(CCc3ccc([C@H](C4CC4)[C@H](C)C(=O)O)cc3O2)CC1 (single isomer, unassigned) [Example 19]",37.6
11,"Cc1ccc(OC(F)(F)F)c(CN2CCC3(CCc4ccc([C@H](C5CC5)[C@H](C)C(=O)O)cc4O3)CC2)c1 [Example 77, (2S,3R)-3-cyclopropyl-2-methyl-3-(1′-(5-methyl-2-(trifluoromethoxy)benzyl)spiro[chroman-2,4′-piperidin]-7-yl)propanoic acid]",23.4
12,"C[C@H](C(=O)O)[C@H](c1ccc2c(c1)OC1(CC2)CCC(N(C)c2ncccc2C(F)(F)F)CC1)C1CC1 (single isomer, unassigned) [Example 63]",2.98
13,"CC(c1cc(Cl)ccc1OC(F)F)N1CCC2(CCc3ccc([C@H](C4CC4)[C@H](C)C(=O)O)c(F)c3O2)CC1 (single isomer, unassigned) [Example 34, (2S,3R)-3-(1′-((S or R)-1-(5-chloro-2-(difluoro-methoxy)phenyl)ethyl)-8-fluorospiro-[chroman-2,4′-piperidin]-7-yl)-3-cyclopropyl-2-methylpropanoic acid]",8.9
14,"C[C@H](C(=O)O)[C@H](c1ccc2c(c1)OC1(CC2)CCN(c2cccc3c2c(C(F)(F)F)nn3C)CC1)C1CC1 [Example 36, (2S,3R)-3-cyclopropyl-2-methyl-3-(1′-(1-methyl-3-(trifluoromethyl)-1H-indazol-4-yl)spiro[chroman-2,4′-piperidin]-7-yl)propanoic Acid]",4.78

# Now from value to compound:
row,EC50 [nM],SMILES
1,21.5,Cc1ccc(OC(F)(F)F)c(C(C)N2CCC3(CCc4ccc([C@H](C5CC5)[C@H](C)C(=O)O)cc4O3)CC2)c1 (mixture of isomers) [Example 112]
2,41.7,"Cc1nocc1-c1ccc(OC(F)(F)F)c(C(C)N2CCC3(CCc4ccc([C@H](C5CC5)[C@H](C)C(=O)O)cc4O3)CC2)c1 (single isomer, unassigned) [Example 115, (2S,3R)-3-cyclopropyl-2-methyl-3-(1′-((R or S)-1-(5-(3-methylisoxazol-4-yl)-2-(trifluoromethoxy)phenyl)eth-yl)spiro[chroman-2,4′-piperidin]-7-yl)propanoic acid]"
3,36.2,"C[C@H](C(=O)O)[C@H](c1ccc2c(c1)OC1(CC2)[C@@H]2CC[C@H]1CN([C@@H](C)c1cc(F)ccc1C(F)(F)F)C2)C1CC1 (single isomer, unassigned) [Example 85]"
4,8.52,"C[C@H](C(=O)O)[C@H](c1ccc2c(c1)OC1(CC2)CC2(CN([C@H](C)c3cc(C(F)(F)F)ccc3C(F)(F)F)C2)C1)C1CC1 [Example 126, (2S,3R)-3-cyclopropyl-3-(2,2-(R)-2-(1-(2,5-bis(trifluoromethyl)phenyl)ethyl)-2-azaspiro[3.3]heptane-chroman-7-yl)-2-methylpropanoic Acid]"
5,36.9,"CC(c1cc(-c2ccoc2)ccc1OC(F)(F)F)N1CCC2(CCc3ccc([C@H](C4CC4)[C@H](C)C(=O)O)cc3O2)CC1 (single isomer, unassigned) [Example 117, (2S,3R)-3-cyclopropyl-3-(1′-((R or S)-1-(5-(furan-3-yl)-2-(trifluoro-methoxy)-phenyl)ethyl)spiro[chroman-2,4′-piperidin]-7-yl)-2-methylpropanoic acid]"
6,3.8,"C[C@H](C(=O)O)[C@H](c1ccc2c(c1)OC1(CC2)CCN(Cc2cc(C(F)(F)F)ccc2C(F)(F)F)CC1)C1CC1 [Example 129, Sodium (2S,3R)-3-(1′-(2,5-bis(trifluoromethyl)benzyl)spiro[chromane-2,4′-piperidin]-7-yl)-3-cyclopropyl-2-methylpropanoate]"
7,3.3,"CC(c1cc(Cl)ccc1OC(F)(F)F)N1CCC2(CCc3ccc([C@H](C4CC4)[C@H](C)C(=O)O)cc3O2)CC1 (stereo partly drawn) [Example 133, Sodium (2S,3R)-3-(1′-(1-(5-chloro-2-(trifluoromethoxy)phenyl)ethyl)spiro[chromane-2,4′-piperidin]-7-yl)-3-cyclopropyl-2-methylpropanoate]"
8,4.19,"C[C@H](C(=O)O)[C@H](c1ccc2c(c1)OC1(CC2)CC(N(C)[C@@H](C)c2cc(C(F)(F)F)ccc2C(F)(F)F)C1)C1CC1 (stereo partly drawn) [Example 100, (2S,3R)-3-(3′-(((S)-1-(2,5-bis(trifluoro-methyl)phenyl)ethyl)(meth-yl)amino)spiro[chro-man-2,1′-cyclobutan]-7-yl)-3-cyclopropyl-2-methylpropanic acid]"
9,59.8,"COc1ccc(C(F)(F)F)c(C(C)N2CCC3(CCc4ccc([C@H](C5CC5)[C@H](C)C(=O)O)cc4O3)CC2)n1 (single isomer, unassigned) [Example 104, sodium (2S,3R)-3-cyclopropyl-3-(1′-((R or S)-1-(6-methoxy-3-(trifluoromethyl)pyridin-2-yl)ethyl)spiro[chroman-2,4′-piperidin]-7-yl)-2-methylpropanoate]"
10,126,"COc1ccc(C(F)(F)F)c(C(C)N2CCC3(CCc4ccc([C@H](C5CC5)[C@H](C)C(=O)O)cc4O3)CC2)n1 (single isomer, unassigned) [Example 105, sodium (2S,3R)-3-cyclo-propyl-3-(1′-((S or R)-1-(6-methoxy-3-(trifluoromethyl)pyridin-2-yl)ethyl)-spiro-[chroman-2,4′-piperidin]-7-yl)-2-methylpropanoate]"
11,15.3,"C[C@H](C(=O)O)[C@H](c1ccc2c(c1)OC1(CC2)CC(Nc2ncccc2C(F)(F)F)C1)C1CC1 (single isomer, unassigned) [Example 87]"
12,0.46,"C[C@H](C(=O)O)[C@H](c1ccc2c(c1)OC1(CC2)CC2(CN([C@@H](C)c3cc(C(F)(F)F)ccc3C(F)(F)F)C2)C1)C1CC1 [Example 127, (2S,3R)-3-cyclopropyl-3-(2,2-(S)-2-(1-(2,5-bis(trifluoromethyl)phen-yl)ethyl)-2-azaspiro[3.3]-heptane-chroman-7-yl)-2-methylpropanoic acid]"
